Laboratory results taken from ChEMBL document CHEMBL1909046, “DrugMatrix in vitro pharmacology data”.

How the values were obtained:
[1] = biological target: T1, Substance-K receptor (Homo sapiens, UniProt P21452); assay type: cell membranes, CHO, Membrane; details: cho; further: in other assays of this panel Not Active means under 50% inhibition at 10 µM
T1 sequence (P21452 whole entry): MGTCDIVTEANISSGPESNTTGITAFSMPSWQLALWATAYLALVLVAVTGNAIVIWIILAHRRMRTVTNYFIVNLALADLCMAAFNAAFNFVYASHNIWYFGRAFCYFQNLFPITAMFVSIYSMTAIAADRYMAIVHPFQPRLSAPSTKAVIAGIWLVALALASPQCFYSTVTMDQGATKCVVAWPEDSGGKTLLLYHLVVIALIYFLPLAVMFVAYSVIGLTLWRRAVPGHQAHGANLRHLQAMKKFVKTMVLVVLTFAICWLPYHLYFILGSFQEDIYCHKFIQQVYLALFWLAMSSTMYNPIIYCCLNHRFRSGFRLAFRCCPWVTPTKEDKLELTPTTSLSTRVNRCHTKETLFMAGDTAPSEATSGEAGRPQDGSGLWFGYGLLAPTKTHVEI

[2] = biological target: T2, Amine oxidase [flavin-containing] A (Homo sapiens, UniProt P21397); test: DRUGMATRIX: Monoamine Oxidase MAO-A enzyme inhibition (substrate: Kynuramine); set-up: species or system BTI-TN-5B1-4; details: bti-tn-5b1-4; Not Active = under 50% inhibition at 10 µM
T2 sequence (P21397 whole entry): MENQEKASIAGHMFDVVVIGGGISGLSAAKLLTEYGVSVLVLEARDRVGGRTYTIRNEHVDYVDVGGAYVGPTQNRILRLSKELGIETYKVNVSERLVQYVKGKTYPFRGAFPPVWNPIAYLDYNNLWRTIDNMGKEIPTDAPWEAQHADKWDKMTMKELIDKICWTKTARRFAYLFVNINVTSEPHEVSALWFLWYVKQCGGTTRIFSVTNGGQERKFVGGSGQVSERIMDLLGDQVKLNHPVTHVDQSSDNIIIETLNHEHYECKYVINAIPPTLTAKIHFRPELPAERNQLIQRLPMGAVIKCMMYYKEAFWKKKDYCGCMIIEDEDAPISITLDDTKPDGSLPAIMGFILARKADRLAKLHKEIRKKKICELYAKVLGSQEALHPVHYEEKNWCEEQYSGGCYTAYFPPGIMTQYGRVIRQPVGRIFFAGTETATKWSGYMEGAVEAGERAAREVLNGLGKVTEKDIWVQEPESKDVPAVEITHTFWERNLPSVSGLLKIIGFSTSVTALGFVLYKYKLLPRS

[3] = biological target: Vasopressin V1a receptor (Homo sapiens, UniProt P37288); assay type: cell membranes, Membrane; details: hek293; further: in other assays of this panel Not Active means under 50% inhibition at 10 µM
[4] = biological target: T3, Interstitial collagenase (Homo sapiens, UniProt P03956); test: biochemical; assay type: tissue-based, Rheumatoid synovial fibroblasts;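 further: MMP-1 enzyme inhibition assay using a peptide substrate; in other assays of this panel Not Active means under 50% inhibition at 10 µM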
T3 sequence (P03956 whole entry): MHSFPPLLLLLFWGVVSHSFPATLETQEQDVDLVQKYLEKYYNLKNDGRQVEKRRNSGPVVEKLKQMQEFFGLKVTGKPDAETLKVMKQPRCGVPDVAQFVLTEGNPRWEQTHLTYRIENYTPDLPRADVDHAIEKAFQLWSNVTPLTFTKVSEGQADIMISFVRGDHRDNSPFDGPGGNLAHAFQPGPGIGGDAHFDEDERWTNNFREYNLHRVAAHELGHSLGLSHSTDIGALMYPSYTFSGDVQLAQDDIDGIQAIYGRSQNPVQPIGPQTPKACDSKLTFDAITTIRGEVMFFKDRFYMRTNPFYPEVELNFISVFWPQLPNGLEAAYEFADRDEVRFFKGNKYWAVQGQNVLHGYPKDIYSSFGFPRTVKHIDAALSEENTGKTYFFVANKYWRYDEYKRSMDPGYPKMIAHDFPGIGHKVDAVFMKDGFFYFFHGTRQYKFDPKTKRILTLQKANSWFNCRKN

[5] = biological target: T4, Endothelin-1 receptor (Homo sapiens, UniProt P25101); assay type: cell membranes, Membrane; details: cho-k1; further: in other assays of this panel Not Active means under 50% inhibition at 10 µM
T4 sequence (P25101 whole entry): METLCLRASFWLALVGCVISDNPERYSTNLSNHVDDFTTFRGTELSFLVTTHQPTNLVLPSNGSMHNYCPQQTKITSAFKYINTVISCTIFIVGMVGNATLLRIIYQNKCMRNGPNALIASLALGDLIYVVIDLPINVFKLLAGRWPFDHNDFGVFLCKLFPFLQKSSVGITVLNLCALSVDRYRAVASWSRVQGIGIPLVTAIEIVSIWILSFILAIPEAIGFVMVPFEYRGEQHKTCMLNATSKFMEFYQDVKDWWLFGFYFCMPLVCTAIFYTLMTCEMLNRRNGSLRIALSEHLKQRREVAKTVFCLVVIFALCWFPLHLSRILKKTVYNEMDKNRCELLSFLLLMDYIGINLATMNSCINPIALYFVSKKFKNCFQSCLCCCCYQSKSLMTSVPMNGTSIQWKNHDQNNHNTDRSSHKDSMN

[6] = DRUGMATRIX: Calcium Channel Type L, Phenylalkylamine radioligand binding (ligand: [3H] (-)-Desmethoxyverapamil (D-888)); assay type: cell membranes, Rattus norvegicus, Wistar, Brain, Membrane; details: Not Active = under 50% inhibition at 10 µM
[7] = biological target: T5, Calcitonin receptor (Homo sapiens, UniProt P30988); assay type: cell membranes, Membrane; details: t47d; further: in other assays of this panel Not Active means under 50% inhibition at 10 µM
T5 sequence (P30988 whole entry): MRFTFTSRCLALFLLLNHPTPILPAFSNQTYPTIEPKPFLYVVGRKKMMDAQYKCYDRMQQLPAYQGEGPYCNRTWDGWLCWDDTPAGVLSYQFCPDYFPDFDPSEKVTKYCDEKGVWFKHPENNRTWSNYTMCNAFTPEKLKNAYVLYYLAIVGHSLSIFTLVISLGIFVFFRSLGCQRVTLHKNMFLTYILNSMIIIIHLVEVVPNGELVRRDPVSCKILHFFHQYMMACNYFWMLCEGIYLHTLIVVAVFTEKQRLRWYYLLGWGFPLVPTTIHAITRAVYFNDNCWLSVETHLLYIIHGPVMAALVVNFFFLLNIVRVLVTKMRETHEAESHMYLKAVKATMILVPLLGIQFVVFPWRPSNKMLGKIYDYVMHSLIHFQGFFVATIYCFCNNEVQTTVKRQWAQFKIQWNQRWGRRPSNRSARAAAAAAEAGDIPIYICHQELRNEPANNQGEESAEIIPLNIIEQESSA

Chain of Vasopressin V1a receptor (P37288 whole entry): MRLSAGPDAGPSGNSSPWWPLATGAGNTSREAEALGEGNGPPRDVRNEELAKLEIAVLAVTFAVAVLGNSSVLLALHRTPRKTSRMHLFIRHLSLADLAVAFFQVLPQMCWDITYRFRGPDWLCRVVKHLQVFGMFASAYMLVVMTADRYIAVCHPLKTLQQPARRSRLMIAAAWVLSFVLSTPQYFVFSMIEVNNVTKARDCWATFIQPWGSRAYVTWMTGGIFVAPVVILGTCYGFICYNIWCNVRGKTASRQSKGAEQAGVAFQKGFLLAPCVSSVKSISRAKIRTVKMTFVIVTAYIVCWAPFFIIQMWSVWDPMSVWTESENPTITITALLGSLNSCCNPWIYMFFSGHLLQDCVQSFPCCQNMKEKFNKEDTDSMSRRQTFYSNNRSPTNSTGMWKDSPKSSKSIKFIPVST

CC(N)C12CC3CC(CC(C3)C1)C2 (configuration not stated) [RIMANTADINE]
Not Active: IC50 [1] | IC50 [2] | IC50 [3] | IC50 [4] | IC50 [5] | IC50 [6] | Ki [6] | IC50 [7]

CS(=O)(=O)c1ccc(C2=C(c3ccccc3)C(=O)OC2)cc1 [ROFECOXIB]
Not Active: IC50 [1] | IC50 [2] | IC50 [3] | IC50 [4] | IC50 [5] | IC50 [6] | Ki [6] | IC50 [7]

CCOc1cc(N)c(Cl)cc1C(=O)NCC1CN(Cc2ccc(F)cc2)CCO1 (configuration not stated) [MOSAPRIDE]
Not Active: IC50 [1] | IC50 [2] | IC50 [3] | IC50 [4] | IC50 [5] | IC50 [6] | Ki [6] | IC50 [7]

Cc1ccnc(NS(=O)(=O)c2ccc(N)cc2)n1 [SULFAMERAZINE]
Not Active: IC50 [1] | IC50 [2] | IC50 [3] | IC50 [4] | IC50 [5] | IC50 [6] | Ki [6] | IC50 [7]

OC[C@@H](O)[C@@H](O)[C@H](O)[C@H](O)CO [MANNITOL]
Not Active: IC50 [1] | IC50 [2] | IC50 [3] | IC50 [4] | IC50 [5] | IC50 [6] | Ki [6] | IC50 [7]

Oc1ccc(/C=C/c2cc(O)cc(O)c2)cc1 [RESVERATROL]
Not Active: IC50 [1] | IC50 [3] | IC50 [4] | IC50 [5] | IC50 [6] | Ki [6] | IC50 [7]

CC1=C(/C=C/C(C)=C/C=C/C(C)=C/C(=O)O)C(C)(C)CCC1 [TRETINOIN]
Not Active: IC50 [1] | IC50 [2] | IC50 [3] | IC50 [4] | IC50 [5] | IC50 [6] | Ki [6] | IC50 [7]

C=CCc1ccc2c(c1)OCO2 [SAFROLE]
Not Active: IC50 [1] | IC50 [2] | IC50 [3] | IC50 [4] | IC50 [5] | IC50 [6] | Ki [6] | IC50 [7]

CCN(CC)N=O [N-NITROSODIETHYLAMINE]
Not Active: IC50 [1] | IC50 [2] | IC50 [3] | IC50 [4] | IC50 [5] | IC50 [6] | Ki [6] | IC50 [7]

CCN1CCCC1CNC(=O)c1cc(S(N)(=O)=O)ccc1OC (configuration not stated) [SULPIRIDE]
Not Active: IC50 [1] | IC50 [2] | IC50 [3] | IC50 [4] | IC50 [5] | IC50 [6] | Ki [6] | IC50 [7]

O=C1CC[C@@]2(O)[C@H]3Cc4ccc(O)c5c4[C@@]2(CCN3CC2CC2)[C@H]1O5 [NALTREXONE]
Not Active: IC50 [1] | IC50 [2] | IC50 [3] | IC50 [4] | IC50 [5] | IC50 [6] | Ki [6] | IC50 [7]

CCN(CC)C(=S)SSC(=S)N(CC)CC
Not Active: IC50 [1] | IC50 [3] | IC50 [4] | IC50 [5] | IC50 [6] | Ki [6] | IC50 [7]

Cc1cc2c(s1)Nc1ccccc1N=C2N1CCN(C)CC1 [OLANZAPINE]
Not Active: IC50 [1] | IC50 [2] | IC50 [3] | IC50 [4] | IC50 [5] | IC50 [7]

CN(C)CCC=C1c2ccccc2COc2ccccc21 [DOXEPIN]
Not Active: IC50 [1] | IC50 [2] | IC50 [3] | IC50 [4] | IC50 [5] | IC50 [7]

CNCCCC12CCC(c3ccccc31)c1ccccc12 [MAPROTILINE]
Not Active: IC50 [1] | IC50 [2] | IC50 [3] | IC50 [4] | IC50 [5] | IC50 [7]
